Patent US11034717B2, “Farnesoid X receptor modulators” (Intercept Pharmaceuticals, Inc., priority 2015, dated 2021)
Read-outs that look alike come from different tables or passages of the source. Values belong to the compound of their own block, whether it stands above or below them.

Assays:
hTGR5 [1] = target: T1, hTGR5 (Homo sapiens (Human), UniProt Q8TDU6); assay: HTR-FRET intracellular cAMP assay in NCI-H716 cells; type: cell-based; conditions: Table 1; Ref LCA
[2] = Critical micellar concentration; type: physicochemical; conditions: determined in […] NaCl water solution
Method: (§1) Physiochemical properties of a compound of the invention such as water solubility, critical micellar concentration, surface tension, and LogPA were determined using methods known in the art.

[3] = 1-octanol-water partition coefficient of ionized species; type: physicochemical
Method: as §1

HepG2 cells = assay: In-vitro cytotoxicity, ATP content; type: cell-based; conditions: Table 5A
Description: To evaluate in-vitro cytotoxicity of a compound of the invention, two different assay methods are employed. The assays evaluate cell viability by measuring ATP levels and cytotoxicity by measuring LDH release. […] It has been called the “molecular unit of currency” when it comes to intracellular energy transfer.
An additional method to determine the viability of cells is to detect the integrity of the membrane that defines the cellular compartmentalization. Measuring the leakage of components out of the cytoplasm, in damaged cell membranes, indicates loss of membrane integrity, and LDH release is the method used to determine common toxicity in cells. HepG2 cells are treated with a compound of the invention, and serial dilutions are performed. LCA dilutions are added to the plated cells as assay controls together with no-cell and untreated cells. The assay is performed in triplicate for each test compound concentration.

hERG potassium channel = hERG potassium channel (Homo sapiens (Human), UniProt Q12809); assay: biochemical; conditions: for hERG potassium channel inhibition (in words): Table 7 footnote
Sequence of hERG potassium channel (Q12809 whole entry): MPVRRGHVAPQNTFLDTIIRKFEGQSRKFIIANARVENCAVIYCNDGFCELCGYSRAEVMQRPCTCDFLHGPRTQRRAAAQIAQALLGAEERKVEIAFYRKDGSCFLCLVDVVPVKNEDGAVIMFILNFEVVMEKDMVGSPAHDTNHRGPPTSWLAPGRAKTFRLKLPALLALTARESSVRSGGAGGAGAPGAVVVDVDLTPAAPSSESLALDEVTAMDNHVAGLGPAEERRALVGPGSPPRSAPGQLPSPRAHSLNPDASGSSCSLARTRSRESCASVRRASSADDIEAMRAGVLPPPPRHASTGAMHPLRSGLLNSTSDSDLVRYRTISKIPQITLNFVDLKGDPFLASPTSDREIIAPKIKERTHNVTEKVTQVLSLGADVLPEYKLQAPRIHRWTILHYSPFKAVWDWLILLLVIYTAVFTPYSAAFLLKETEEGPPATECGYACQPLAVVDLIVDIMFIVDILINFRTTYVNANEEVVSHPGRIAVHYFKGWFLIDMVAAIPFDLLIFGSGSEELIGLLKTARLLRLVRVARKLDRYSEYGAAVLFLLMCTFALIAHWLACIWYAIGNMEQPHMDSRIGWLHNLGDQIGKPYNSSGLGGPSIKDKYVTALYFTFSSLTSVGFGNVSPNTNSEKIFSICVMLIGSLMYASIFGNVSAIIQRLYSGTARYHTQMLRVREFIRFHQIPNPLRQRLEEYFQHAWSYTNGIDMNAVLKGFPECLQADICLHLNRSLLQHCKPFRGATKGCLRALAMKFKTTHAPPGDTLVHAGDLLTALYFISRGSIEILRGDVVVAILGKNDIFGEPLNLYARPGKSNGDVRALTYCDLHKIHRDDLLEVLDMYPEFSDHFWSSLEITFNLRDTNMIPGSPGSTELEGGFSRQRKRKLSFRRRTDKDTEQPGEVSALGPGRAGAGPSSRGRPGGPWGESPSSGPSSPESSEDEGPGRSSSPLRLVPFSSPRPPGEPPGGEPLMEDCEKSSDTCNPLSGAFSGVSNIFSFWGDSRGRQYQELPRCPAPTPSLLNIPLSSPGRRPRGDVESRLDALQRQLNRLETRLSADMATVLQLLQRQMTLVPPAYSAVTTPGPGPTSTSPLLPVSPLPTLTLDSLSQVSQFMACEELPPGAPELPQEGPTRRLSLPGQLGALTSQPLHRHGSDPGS
Description: The assay is based on the assumption that the hERG potassium channel activity contributes to the resting membrane potential in permanently transfected cells, and thus a block of hERG channels should result in a depolarization of the cell membrane. The assay is designed to identify potential hERG channel blockers by producing data that accurately correlates with patch-clamp electrophysiology studies.
Membrane preparations from Chinese hamster ovary cells stably transfected with hERG potassium channel are used to evaluate the potential inhibitory effect of a compound of the invention on this channel using the Predictor™ fluorescence polarization assay. Reduction of membrane polarization as a result of inhibition of the hERG potassium channel is directly correlated with a reduction of the fluorescence polarization (FP).
An assay window more than 100 mP (millipolarization) is considered good. The non-linear regression curves are obtained by GraphPad Prism (GraphPad Software Inc.) analysis, to calculate the IC50 values.

dTGR5 = assay: Cross species TGR5 activity, CHO cells, dog; type: cell-based
[4] = system: nuclear receptors LXRP, PXR, CAR, PPARα, PPARγ, RAR, RARα, VDR, TR, PR, RXR, GR, and ER; assay: Nuclear receptor selectivity profile (AlphaScreen); type: biochemical; conditions: for Activation of nuclear receptor panel, agonist mode: dose response to 200 μM; for Activity on nuclear receptor panel, antagonist mode: fixed concentration at 10 μM
Method: Using the AlphaScreen assay, the selectivity of a compound of the invention against the following nuclear receptors involved in the metabolic pathways can be evaluated: LXRP, PXR, CAR, PPARα, PPARα, PPARγ, RAR, RARα, VDR, TR, PR, RXR, GR, and ER.
Compounds L1, 3, 5, 6 and 7 were tested against the panel of available nuclear receptor in both agonist and antagonist mode.

mTGR5 = mTGR5 (Mus musculus (Mouse), UniProt Q80SS6); assay: Cross species TGR5 activity, CHO cells, mouse; type: cell-based
hTGR5 [5] = target: T1, hTGR5; assay: Cross species TGR5 activity, CHO cells, human; type: cell-based
[6] = system: FXR target genes: BSEP, SHP, OSTβ and CYP7A1; assay: FXR target gene panel, quantitative RT-PCR in HepG2 cells; type: cell-based; conditions: stimulation for 18 hours
Method: To evaluate the capacity of a compound of the invention to modulate FXR target genes, quantitative RT-PCR assays are performed. HepG2 cells are selected as a relevant cell line to determine whether a compound of the invention can regulate the endogenous FXR genetic network. The ability of a compound of the invention to induce FXR target genes is assessed by isolating total RNA from cells treated overnight with 1 μM of compounds A, B, and a compound of the invention.
FXR regulates the expression of several target genes involved in BA homeostasis. Briefly, FXR plays a central role in several metabolic pathways, including i.e., lipid metabolism, bile-acids metabolism, and carbohydrate metabolism. Regarding gene expression profiling, the genes encoding proteins involved in lipid metabolism include, e.g., APOCII, APOE, APOAI, SREBP-1C, VLDL-R, PLTP, and LPL; the genes encoding proteins involved in bile-acids metabolism include, e.g., OSTα/β, BSEP, MRP2, SHP, CYP7A1, FGF19, SULT2A1, and UGT2B4; and the genes encoding proteins involved in carbohydrate metabolism include, e.g., PGCla, PEPCK, and GLUT2. FXR target genes: BSEP, SHP, OSTβ and CYP7A1 were evaluated following stimulation of Compounds 3, 5, 6, and 7 on HepG2 cells for 18 hours. Compound L1 was used as a control.

CYP3A4 = CYP3A4 (Homo sapiens (Human), UniProt P08684); assay: CYP450 inhibition, fluorescent substrate, recombinant baculosomes; type: in vitro ADME
Sequence of CYP3A4 (P08684 whole entry, canonical isoform): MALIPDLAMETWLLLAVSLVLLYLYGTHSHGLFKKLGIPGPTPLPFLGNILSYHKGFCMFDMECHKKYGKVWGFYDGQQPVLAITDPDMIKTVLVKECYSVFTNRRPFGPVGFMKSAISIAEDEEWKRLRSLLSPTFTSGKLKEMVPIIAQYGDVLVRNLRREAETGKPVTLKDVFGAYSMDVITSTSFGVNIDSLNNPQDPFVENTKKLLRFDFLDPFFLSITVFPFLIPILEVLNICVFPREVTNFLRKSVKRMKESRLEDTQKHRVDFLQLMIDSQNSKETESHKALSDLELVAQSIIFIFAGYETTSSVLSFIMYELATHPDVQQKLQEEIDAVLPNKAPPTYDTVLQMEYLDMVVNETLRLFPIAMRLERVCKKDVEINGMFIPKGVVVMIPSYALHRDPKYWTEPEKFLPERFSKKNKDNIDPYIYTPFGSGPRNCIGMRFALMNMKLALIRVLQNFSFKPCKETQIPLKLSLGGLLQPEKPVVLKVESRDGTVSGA
Method: (§2) To evaluate the potential of a compound of the invention for drug-drug interactions, the six main CYP450 isoforms (CYP1A2, CYP2C9, CYP2C19, CYP2D6, CYP2E1, CYP3A4) are investigated (Obach, et al., J Pharmacol. Exp. Ther, 2006, 316, 336-348).
(§3) To determine interaction between a compound of the invention and cytochrome P450 enzymes, the compound of the invention is analyzed by its capacity to inhibit (or not) the production of a fluorescent signal, using recombinant CYP450 proteins (baculosomes; Invitrogen), substrates and inhibitors (Bidstrup, et al., Br J Clin. Pharmacol, 2003, 56, 305-14). As a positive control, a selective inhibitor for each CYP450 isoform is tested in the same plate.

CYP2E1 = CYP2E1 (Homo sapiens (Human), UniProt P05181); assay: as above; type: in vitro ADME
Sequence of CYP2E1 (P05181 whole entry): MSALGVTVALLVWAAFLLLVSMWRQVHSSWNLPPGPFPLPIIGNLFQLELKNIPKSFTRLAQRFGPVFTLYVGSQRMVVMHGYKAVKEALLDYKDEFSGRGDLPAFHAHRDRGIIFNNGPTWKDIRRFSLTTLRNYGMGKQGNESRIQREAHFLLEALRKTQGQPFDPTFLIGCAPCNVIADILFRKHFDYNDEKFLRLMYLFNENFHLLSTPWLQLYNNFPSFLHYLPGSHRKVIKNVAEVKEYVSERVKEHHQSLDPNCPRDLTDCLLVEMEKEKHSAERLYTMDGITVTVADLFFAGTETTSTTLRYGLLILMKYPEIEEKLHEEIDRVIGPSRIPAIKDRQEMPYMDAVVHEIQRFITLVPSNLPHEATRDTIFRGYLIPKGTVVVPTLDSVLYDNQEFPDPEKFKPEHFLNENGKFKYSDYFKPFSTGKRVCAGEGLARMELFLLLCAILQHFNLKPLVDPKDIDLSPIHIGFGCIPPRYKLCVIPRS
Method: as §2, §3

CYP2D6 = CYP2D6 (Homo sapiens (Human), UniProt P10635); assay: as above; type: in vitro ADME
Sequence of CYP2D6 (P10635 whole entry): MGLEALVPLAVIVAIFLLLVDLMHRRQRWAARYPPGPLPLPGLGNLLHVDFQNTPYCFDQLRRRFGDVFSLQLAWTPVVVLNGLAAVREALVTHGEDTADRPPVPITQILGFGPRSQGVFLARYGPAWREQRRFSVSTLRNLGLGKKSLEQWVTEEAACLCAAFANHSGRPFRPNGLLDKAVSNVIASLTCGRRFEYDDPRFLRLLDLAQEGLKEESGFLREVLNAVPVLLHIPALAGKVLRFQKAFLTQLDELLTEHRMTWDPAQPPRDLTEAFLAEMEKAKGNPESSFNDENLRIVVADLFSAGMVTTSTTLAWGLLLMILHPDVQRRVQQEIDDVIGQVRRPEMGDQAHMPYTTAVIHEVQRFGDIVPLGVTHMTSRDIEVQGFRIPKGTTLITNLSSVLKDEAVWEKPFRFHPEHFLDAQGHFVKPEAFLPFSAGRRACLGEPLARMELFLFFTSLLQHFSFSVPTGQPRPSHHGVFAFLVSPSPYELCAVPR
Method: as §2, §3

CYP1A2 = CYP1A2 (Homo sapiens (Human), UniProt P05177); assay: as above; type: in vitro ADME
Sequence of CYP1A2 (P05177 whole entry): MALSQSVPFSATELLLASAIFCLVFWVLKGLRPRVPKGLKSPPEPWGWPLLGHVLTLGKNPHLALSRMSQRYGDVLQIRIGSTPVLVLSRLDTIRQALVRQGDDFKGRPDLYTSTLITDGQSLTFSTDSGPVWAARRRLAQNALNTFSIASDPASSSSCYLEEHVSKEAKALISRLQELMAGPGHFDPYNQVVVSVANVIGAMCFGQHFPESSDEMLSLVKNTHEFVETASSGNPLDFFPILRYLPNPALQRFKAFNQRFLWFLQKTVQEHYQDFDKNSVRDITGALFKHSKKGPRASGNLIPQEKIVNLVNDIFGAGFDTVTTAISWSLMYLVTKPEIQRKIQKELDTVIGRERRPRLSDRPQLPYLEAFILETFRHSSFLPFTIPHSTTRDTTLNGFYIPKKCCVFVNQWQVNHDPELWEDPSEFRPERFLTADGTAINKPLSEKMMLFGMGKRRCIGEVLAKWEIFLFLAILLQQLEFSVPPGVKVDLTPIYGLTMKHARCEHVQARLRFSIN
Method: as §2, §3

CYP2C9 = CYP2C9 (Homo sapiens (Human), UniProt P11712); assay: as above; type: in vitro ADME
Sequence of CYP2C9 (P11712 whole entry): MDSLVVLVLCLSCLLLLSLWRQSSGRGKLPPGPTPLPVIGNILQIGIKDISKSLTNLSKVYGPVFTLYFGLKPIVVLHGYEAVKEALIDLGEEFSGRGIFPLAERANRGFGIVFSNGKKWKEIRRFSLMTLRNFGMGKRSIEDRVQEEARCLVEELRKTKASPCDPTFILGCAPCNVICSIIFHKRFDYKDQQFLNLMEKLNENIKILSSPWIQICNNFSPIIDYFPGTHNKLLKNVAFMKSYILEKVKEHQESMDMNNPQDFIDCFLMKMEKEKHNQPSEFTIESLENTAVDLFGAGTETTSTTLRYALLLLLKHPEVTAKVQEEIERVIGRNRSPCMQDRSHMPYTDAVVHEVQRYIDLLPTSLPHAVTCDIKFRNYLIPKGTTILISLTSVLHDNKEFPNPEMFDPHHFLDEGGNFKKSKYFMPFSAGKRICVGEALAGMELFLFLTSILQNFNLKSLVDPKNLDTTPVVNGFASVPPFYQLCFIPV
Method: as §2, §3

CYP2C19 = CYP2C19 (Homo sapiens (Human), UniProt P33261); assay: as above; type: in vitro ADME
Sequence of CYP2C19 (P33261 whole entry): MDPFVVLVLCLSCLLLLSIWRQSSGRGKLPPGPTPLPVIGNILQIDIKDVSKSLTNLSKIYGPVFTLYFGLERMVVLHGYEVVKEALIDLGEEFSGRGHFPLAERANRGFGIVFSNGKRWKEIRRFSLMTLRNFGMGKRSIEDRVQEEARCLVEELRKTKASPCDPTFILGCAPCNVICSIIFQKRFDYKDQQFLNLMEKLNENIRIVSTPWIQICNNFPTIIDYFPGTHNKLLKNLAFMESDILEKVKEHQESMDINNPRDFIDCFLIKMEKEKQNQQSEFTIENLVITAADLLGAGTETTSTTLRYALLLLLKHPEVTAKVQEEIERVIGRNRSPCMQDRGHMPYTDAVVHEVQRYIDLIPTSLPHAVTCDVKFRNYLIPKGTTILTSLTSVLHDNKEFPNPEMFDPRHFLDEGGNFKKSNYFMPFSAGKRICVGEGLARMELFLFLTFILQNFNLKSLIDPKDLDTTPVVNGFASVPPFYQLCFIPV
Method: as §2, §3

rTGR5 = rTGR5 (Rattus norvegicus (Rat), UniProt Q80T02); assay: Cross species TGR5 activity, CHO cells, rat; type: cell-based
Sequence of rTGR5 (Q80T02 whole entry): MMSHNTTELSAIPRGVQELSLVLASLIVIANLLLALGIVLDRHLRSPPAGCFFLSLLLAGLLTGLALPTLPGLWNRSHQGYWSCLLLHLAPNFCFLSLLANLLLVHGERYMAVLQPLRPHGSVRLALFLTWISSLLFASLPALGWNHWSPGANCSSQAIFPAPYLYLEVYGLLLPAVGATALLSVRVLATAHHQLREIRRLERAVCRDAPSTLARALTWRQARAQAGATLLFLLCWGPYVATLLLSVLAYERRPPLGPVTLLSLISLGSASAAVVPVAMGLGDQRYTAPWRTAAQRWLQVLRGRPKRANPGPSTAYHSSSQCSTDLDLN

[7] = read-out: CYP3A4 (Green substrate) IC50, Green substrate

T1 sequence (Q8TDU6 whole entry): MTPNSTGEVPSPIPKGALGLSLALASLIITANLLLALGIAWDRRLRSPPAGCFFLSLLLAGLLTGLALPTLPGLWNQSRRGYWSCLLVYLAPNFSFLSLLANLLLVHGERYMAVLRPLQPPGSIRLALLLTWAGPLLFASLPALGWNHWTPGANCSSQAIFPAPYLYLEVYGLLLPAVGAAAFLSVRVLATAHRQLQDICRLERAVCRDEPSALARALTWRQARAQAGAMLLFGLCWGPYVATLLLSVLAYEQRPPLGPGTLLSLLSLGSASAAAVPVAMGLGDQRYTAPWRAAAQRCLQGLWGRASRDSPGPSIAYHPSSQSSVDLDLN

Compound: CC[C@H]1[C@@H](O)C2C3CC[C@H]([C@H](C)CC(=O)O)[C@@]3(C)C[C@H](O)C2[C@@]2(C)CC[C@@H](O)C[C@@H]12 (stereo partly drawn) [Compound 1, 3α,7α,11β-trihydroxy-6α-ethyl-24-nor-5β-cholan-23-oic acid]
- EC50 (hTGR5 [1]): > 100 µM

Compound: CC[C@H]1[C@@H](O)C2C3C[C@H](O)[C@H]([C@H](C)CCC(=O)O)[C@@]3(C)CCC2[C@@]2(C)CC[C@@H](O)C[C@@H]12 (stereo partly drawn) [Compound E, reference compound]
- CMC: Critical Micellar Concentration [2]: 5.9 mM
- LogPA−: 1-octanol-water partition coefficient as ionized species [3]: 1.6

Compound: CC[C@H]1[C@@H](O)C2C3CC[C@H]([C@H](C)CCO)[C@@]3(C)C[C@H](O)C2[C@@]2(C)CC[C@@H](O)C[C@@H]12 (stereo partly drawn) [Compound 2, 3α,7α,11β-trihydroxy-6α-ethyl-24-nor-5β-cholan-23-ol]
- EC50 (hTGR5 [1]): 93 µM

Compound: CC[C@H]1[C@@H](O)C2C3CCC(C(C)CC(C)C(=O)O)[C@@]3(C)[C@@H](O)CC2[C@@]2(C)CC[C@@H](O)C[C@@H]12 (stereo in doubt) [Compound C, 6α-ethyl-23(S)-methyl-3α,7α,12α trihydroxy-5β-cholan-24-oic acid, reference compound]
- CMC: Critical Micellar Concentration [2]: 2 mM
- LogPA−: 1-octanol-water partition coefficient as ionized species [3]: 1.4

Compound: CC[C@H]1[C@@H](O)C2C3CC[C@H]([C@H](C)CCOS(=O)(=O)[O-])[C@@]3(C)C[C@H](O)C2[C@@]2(C)CC[C@@H](O)C[C@@H]12.[Na+] (stereo partly drawn) [Compound 3, 3α,7α,11β,23-tetrahydroxy-6α-ethyl-24-nor-5β-cholan-23-O-sulphate sodium salt]
- ATP Content EC50 (HepG2 cells): No toxicity
- EC50 (hTGR5 [1]): 83 ± 7 µM
- IC50 (hERG potassium channel): > 100 µM
- hERG potassium channel inhibition (in words) (hERG potassium channel): Compounds L1, 3, 5, 6 and 7 did not inhibit hERG potassium channel.
- dTGR5 CHO EC50 (dTGR5): No activity
- CMC: Critical Micellar Concentration [2]: 12.5 mM
- Activation of nuclear receptor panel, agonist mode [4]: Neither compound activated any of the receptors
- Activity on nuclear receptor panel, antagonist mode [4]: Neither compound activated any of the receptors
- EC50 (mTGR5): 3 ± 0.5 µM
- EC50 (hTGR5 [5]): 5 ± 1 µM
- Modulation of FXR target genes BSEP, SHP, OSTβ and CYP7A1 [6]: significantly bind to FXR in hepatic cells modulating FXR target genes
- IC50 (CYP3A4): > 10 µM
- IC50 (CYP3A4; [7]): > 10 µM
- IC50 (CYP2E1): > 10 µM
- IC50 (CYP2D6): > 10 µM
- IC50 (CYP1A2): > 10 µM
- IC50 (CYP2C9): > 10 µM
- IC50 (CYP2C19): > 10 µM
- LogPA−: 1-octanol-water partition coefficient as ionized species [3]: 0.12
- rTGR5 CHO EC50 (rTGR5): No activity

Compound: CC[C@H]1[C@@H](O)C2C3CC[C@H]([C@H](C)CCCOS(=O)(=O)[O-])[C@@]3(C)C[C@H](O)C2[C@@]2(C)CC[C@@H](O)C[C@@H]12.[Na+] (stereo partly drawn) [Compound 5, 3α,7α,11β-Trihydroxy-6α-ethyl-5β-cholan-24-O-sulphate, sodium salt]
- ATP Content EC50 (HepG2 cells): No toxicity
- EC50 (hTGR5 [1]): 78 ± 1 µM
- IC50 (hERG potassium channel): > 100 µM
- hERG potassium channel inhibition (in words) (hERG potassium channel): Compounds L1, 3, 5, 6 and 7 did not inhibit hERG potassium channel.
- dTGR5 CHO EC50 (dTGR5): No activity
- CMC: Critical Micellar Concentration [2]: 8.5 mM
- Activation of nuclear receptor panel, agonist mode [4]: Neither compound activated any of the receptors
- Activity on nuclear receptor panel, antagonist mode [4]: Neither compound activated any of the receptors
- EC50 (mTGR5): 4 ± 1 µM
- EC50 (hTGR5 [5]): 3 ± 1 µM
- Modulation of FXR target genes BSEP, SHP, OSTβ and CYP7A1 [6]: significantly bind to FXR in hepatic cells modulating FXR target genes
- IC50 (CYP3A4): > 10 µM
- IC50 (CYP3A4; [7]): > 10 µM
- IC50 (CYP2E1): > 10 µM
- IC50 (CYP2D6): > 10 µM
- IC50 (CYP1A2): > 10 µM
- IC50 (CYP2C9): > 10 µM
- IC50 (CYP2C19): > 10 µM
- LogPA−: 1-octanol-water partition coefficient as ionized species [3]: 0.61
- rTGR5 CHO EC50 (rTGR5): No activity

- CMC: Critical Micellar Concentration [2]: 2.9 mM
- LogPA−: 1-octanol-water partition coefficient as ionized species [3]: 2.5
Compound: CC[C@H]1[C@@H](O)[C@@H]2[C@H](CC[C@]3(C)[C@@H]([C@H](C)CCC(=O)O)CC[C@@H]23)[C@@]2(C)CC[C@@H](O)C[C@@H]12 [Compound A, 6α-ethyl-3α,7α-dihydroxy-5β-cholan-24-oic acid, reference compound]

Compound: 6α-ethyl-3α,7α,23-trihydroxy-24-nor-5β-cholan-23-sulphate sodium salt [Compound B, reference compound]
- EC50 (hTGR5 [1]): 0.63 µM

Compound: CC[C@H]1[C@@H](O)[C@@H]2[C@H]([C@@H](O)C[C@]3(C)[C@@H]([C@H](C)CCCO)CC[C@@H]23)[C@@]2(C)CC[C@@H](O)C[C@@H]12 [Compound 4, 3α,7α,11β-trihydroxy-6α-ethyl-5β-cholan-24-ol]
- EC50 (hTGR5 [1]): 13.7 ± 2.3 µM

Compound: CC[C@H]1[C@@H](O)C2C3CC[C@H]([C@H](C)C[C@H](C)C(=O)O)[C@@]3(C)CCC2[C@@]2(C)CC[C@@H](O)C[C@@H]12 (stereo partly drawn) [Compound D, 6α-ethyl-23(R)-methyl chenodeoxycholic acid]
- LogPA−: 1-octanol-water partition coefficient as ionized species [3]: 2.9
